{
  "source": "ChEMBL document CHEMBL2331525",
  "about": "“Nudibaccatumone, a trimer comprising a phenylpropanoid and two sesquiterpene moieties from Piper nudibaccatum” (J Nat Prod, 2013)",
  "key": {"K562 [1]": {"tested_on": "K562", "assay": "Cytotoxicity against human K562 cells at 100 uM by MTT assay", "format": "functional, cell-based"}, "A549 [2]": {"tested_on": "A549", "assay": "Cytotoxicity against human A549 cells at 100 uM by SRB assay", "format": "functional, cell-based"}, "Escherichia coli [3]": {"tested_on": "Escherichia coli", "assay": "Antimicrobial activity against Escherichia coli at 100 uM by microdilution method", "format": "functional, organism-based"}, "Staphylococcus aureus [4]": {"tested_on": "Staphylococcus aureus", "assay": "Antimicrobial activity against Staphylococcus aureus at 100 uM by microdilution method", "format": "functional, organism-based"}, "Candida albicans [5]": {"tested_on": "Candida albicans", "assay": "Antimicrobial activity against Candida albicans at 100 uM by microdilution method", "format": "functional, organism-based"}, "A549 [6]": {"tested_on": "A549", "assay": "Cytotoxicity against human A549 cells by SRB assay", "format": "functional, cell-based"}, "K562 [7]": {"tested_on": "K562", "assay": "Cytotoxicity against human K562 cells by MTT assay", "format": "functional, cell-based"}, "Escherichia coli [8]": {"tested_on": "Escherichia coli", "assay": "Antimicrobial activity against Escherichia coli by microdilution method", "format": "functional, organism-based"}, "Staphylococcus aureus [9]": {"tested_on": "Staphylococcus aureus", "assay": "Antimicrobial activity against Staphylococcus aureus by microdilution method", "format": "functional, organism-based"}, "Candida albicans [10]": {"tested_on": "Candida albicans", "assay": "Antimicrobial activity against Candida albicans by microdilution method", "format": "functional, organism-based"}},
  "note": "Active and inactive are the calls of the source. The calls are words filed in the database; no cut-off is given here.",
  "data": [
    {"compound": "C/C1=C\\CC[C@]2(C)[C@@H]3C(=O)C(=O)[C@@H](C=C3/C=C/C[C@@]3(C)CC[C@H]4C3=C[C@H](C(C)(C)O)CC[C@H]4C)[C@H]2[C@H]2[C@H](CC1)C2(C)C", "values": [
      {"measurement": "Activity", "setting": "K562 [1]", "value": "inactive"},
      {"measurement": "Activity", "setting": "A549 [2]", "value": "inactive"},
      {"measurement": "Activity", "setting": "Escherichia coli [3]", "value": "inactive"},
      {"measurement": "Activity", "setting": "Staphylococcus aureus [4]", "value": "inactive"},
      {"measurement": "Activity", "setting": "Candida albicans [5]", "value": "inactive"}
    ]},
    {"compound": "COc1cccc2c1C(=O)c1c(O)c3c(c(O)c1C2=O)C[C@@](O)(C(=O)CO)C[C@@H]3O[C@H]1C[C@H](N)[C@H](O)[C@H](C)O1", "note": "[DOXORUBICIN]", "values": [
      {"measurement": "IC50", "setting": "A549 [6]", "value": 49, "unit": "nM"},
      {"measurement": "IC50", "setting": "K562 [7]", "value": 280, "unit": "nM"}
    ]},
    {"compound": "GENTAMICIN", "values": [
      {"measurement": "MIC", "setting": "Escherichia coli [8]", "value": 1.2, "unit": "µg/mL"},
      {"measurement": "MIC", "setting": "Staphylococcus aureus [9]", "value": 0.05, "unit": "µg/mL"}
    ]},
    {"compound": "NYSTATIN", "values": [
      {"measurement": "MIC", "setting": "Candida albicans [10]", "value": 1, "unit": "µg/mL"}
    ]}
  ]
}
